Measurements from PubChem BioAssay (NCI).
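Step 1: Grow cells in 96-well plates. Step 2: Expose to compound for 48 hours at 5 concentrations. Step 3: Interpolate endpoints linearly; if unreached, use highest concentration. Abbreviation: GI50, concentration required for 50% inhibition of growth. TGI denotes the concentration required for complete inhibition of growth.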

Assays:
Assay in all cases: NCI tumour cell line growth inhibition, 48 h
P388 leukemia = test system: P388 leukemia
LXFL 529 NSCLC = test system: LXFL 529 NSCLC
DU-145 prostate = test system: DU-145 prostate
HS 578T breast = test system: HS 578T breast
PC-3 prostate = test system: PC-3 prostate
786-0 renal = test system: 786-0 renal

| SMILES | TGI (LXFL 529 NSCLC) | TGI (DU-145 prostate) | TGI (HS 578T breast) | TGI (PC-3 prostate) | further results |
| --- | --- | --- | --- | --- | --- |
| N#C[C@H](OC1OC(COC2OC(CO)C(O)C(O)C2O)C(O)C(O)C1O)c1ccccc1 (some centres undefined) | – | – | – | – | TGI (P388 leukemia): > 250 µM |
| O=C(Nc1nc2ccc([N+](=O)[O-])cc2s1)C(=O)C(C(=O)c1ccccc1F)C1OC(=O)c2ccccc21 (centres undefined) | > 100 µM | – | – | – | – |
| CCCNC(=O)C(C)C1CCC2(C)C=CC(=O)C(C)=C2C1O (centres undefined) | – | – | – | – | TGI (P388 leukemia): > 100 µM |
| CCCc1c(-c2ccccc2)[nH]c2ccccc2c1=O | – | > 100 µM | > 100 µM | > 100 µM | – |
| CCN(CC)c1ccc2cc(C(=O)Nc3ccc4[nH]c(C(=O)N5C[C@@H](CCl)c6c5cc(OC(=O)Nc5ccccc5)c5[nH]cc(C)c65)cc4c3)oc2c1 | – | – | – | – | GI50 (P388 leukemia): 89.4 µM |
| O=C1C(Cl)=C(Nc2ccc(S(=O)(=O)O)cc2)C(=O)c2ccccc21 | – | 36.5 µM | 52.8 µM | 69.5 µM | TGI (786-0 renal): 84.6 µM |
| O=c1ssc(=Nc2ccccc2)n1-c1ccccc1 | – | 39.9 µM | 98.7 µM | 38.5 µM | TGI (786-0 renal): 34.6 µM |
| C=CC1(NC(=O)c2ccccc2)CCC(C(C)(C)C)CC1 (centres undefined) | – | – | – | – | TGI (P388 leukemia): 38.4 µM |
| COc1nc(=O)n(COC(CO)CN2C(=O)c3ccccc3C2=O)cc1Cc1cccc(OCc2ccccc2)c1 (centres undefined) | > 100 µM | – | – | – | – |
| CN(C)CCCN1c2ccccc2Sc2ccc3ccccc3c21 | – | 25.4 µM | 25.6 µM | 14.6 µM | TGI (786-0 renal): 23.4 µM |
| OCCNCCN1CCN(CCCN2c3ccccc3Sc3ccc(C(F)(F)F)cc32)CC1 | – | > 100 µM | 70.1 µM | 62.1 µM | TGI (786-0 renal): 31 µM |
| O=C(O)c1cc2c(ncc3c(=O)n(-c4ccccc4)[nH]c32)s1 | > 100 µM | – | – | – | – |
| CC(=O)Oc1cc2c(cc1OC(C)=O)OCC(c1ccccc1)C2 (centres undefined) | – | – | – | – | TGI (P388 leukemia): 9.97 µM |
| Cc1ccc(C2OC(COCc3ccc(Cl)cc3)C(OCc3ccc(Cl)cc3)C2O)cc1 (centres undefined) | 58.5 µM | – | – | – | – |
| O=C1OC2(CC1C1(O)C3CC4CC(C3)CC1C4)C1CC3CC(C1)CC2C3 (centres undefined) | > 100 µM | – | – | – | – |
